The target in the test is T1, human TMEM16A (TMEM16Aabc variant) (Homo sapiens, UniProt Q5XXA6).
T1 construct: human TMEM16A (TMEM16Aabc variant)
T1 sequence (Q5XXA6 1-986): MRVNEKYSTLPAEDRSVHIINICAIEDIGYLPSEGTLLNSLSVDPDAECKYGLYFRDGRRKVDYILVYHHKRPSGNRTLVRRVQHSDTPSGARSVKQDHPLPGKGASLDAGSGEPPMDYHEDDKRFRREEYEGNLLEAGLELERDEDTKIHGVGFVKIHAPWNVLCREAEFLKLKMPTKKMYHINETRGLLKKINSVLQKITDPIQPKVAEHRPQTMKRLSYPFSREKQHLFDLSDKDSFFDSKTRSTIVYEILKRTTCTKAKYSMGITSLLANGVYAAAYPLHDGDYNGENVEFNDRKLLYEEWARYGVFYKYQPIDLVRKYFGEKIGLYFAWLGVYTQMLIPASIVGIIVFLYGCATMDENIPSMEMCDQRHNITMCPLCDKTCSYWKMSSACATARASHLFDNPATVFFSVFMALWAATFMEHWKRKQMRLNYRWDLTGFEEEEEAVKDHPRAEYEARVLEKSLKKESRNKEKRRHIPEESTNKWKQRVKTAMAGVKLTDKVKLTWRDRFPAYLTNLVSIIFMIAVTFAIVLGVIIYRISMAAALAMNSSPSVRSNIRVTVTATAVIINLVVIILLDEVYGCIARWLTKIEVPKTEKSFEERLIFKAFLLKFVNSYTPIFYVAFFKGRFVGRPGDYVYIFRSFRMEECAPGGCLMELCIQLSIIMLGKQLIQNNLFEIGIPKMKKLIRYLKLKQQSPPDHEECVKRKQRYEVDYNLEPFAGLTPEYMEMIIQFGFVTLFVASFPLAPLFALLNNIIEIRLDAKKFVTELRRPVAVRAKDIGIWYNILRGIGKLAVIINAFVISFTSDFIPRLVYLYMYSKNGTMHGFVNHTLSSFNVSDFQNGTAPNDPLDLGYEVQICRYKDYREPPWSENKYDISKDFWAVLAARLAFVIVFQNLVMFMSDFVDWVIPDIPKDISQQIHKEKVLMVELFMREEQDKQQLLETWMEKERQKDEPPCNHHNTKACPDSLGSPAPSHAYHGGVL
The test is described as follows: Automated whole-cell patch clamp (QPatch) TMEM16A potentiator assay in FRT cells stably expressing human TMEM16A. The conditions noted are these: for QPatch TMEM16A % Potentiation @ 370 nM: 370 nM test compound; for QPatch TMEM16A % Potentiation @ 370 nM / QPatch TMEM16A % Potentation @ 3.3 μM: percentage increase of baseline TMEM16A current; for QPatch TMEM16A % Potentation @ 3.3 μM: 3.3 μM test compound; for EC50: FRT-TMEM16A cells, whole-cell patch clamp, peak current at +70 mV, intracellular calcium at EC20. The test is classed as cell-based. The protocol: Fisher rat thyroid (FRT) cells stably expressing human TMEM16A (TMEM16Aabc variant; Dr Luis Galietta, Insituto Giannina, Italy) were cultured in T-75 flasks in Hams F-12 media with Coon's modification (Sigma) supplemented with 10% (v/v) foetal bovine serum, penicillin-streptomycin (10,000 U/mL/10000 μg/mL), G-418 (750 μg/mL), L-glutamine (2 mM) and sodium bicarbonate solution (7.5% v/v). At ˜90% confluence cells were harvested for experiments by detachment with a 2:1 (v/v) mixture of Detachin (BMS Biotechnology) and 0.25% (w/v) trypsin-EDTA.
FRT-TMEM16A cells were whole-cell patch clamped using an automated planar patch clamp system (Qpatch, Sophion). Briefly, once high resistance (GOhm) seals were established between the cells and the planar recording array the patch was ruptured using suction pulses to establish the whole-cell recording configuration of the patch clamp technique. The assay employed the following solutions (all reagents Sigma): Intracellular solution (mM): N-methyl-D-glucamine 130, CaCl2 18.2, MgCl2 1, HEPES 10, EGTA 10, BAPTA 20, Mg-ATP 2, pH 7.25, 325 mOsm with sucrose.
Extracellular solution (mM): N-methyl-D-glucamine 130, CaCl2 2, MgCl2 1, HEPES 10, pH 7.3, 320 mOsm with sucrose.
The intracellular solution buffers intracellular calcium at levels required to give ˜20% activation of the maximal TMEM16A mediated current (EC20 for calcium ions). Cells were voltage clamped at a holding potential of −70 mV and a combined voltage step (to +70 mV)/ramp (−90 my to +90 mV) was applied at 0.05 Hz. After a period of current stabilisation test compounds, solubilised in 100% (v/v) DMSO and subsequently diluted into extracellular solution, were applied to generate a cumulative concentration response curve. Each concentration of test compound was incubated for 5 minutes before addition of the next concentration. After the final concentration was tested a supramaximal concentration of either a known active positive modulator or the TMEM16A inhibitor, CaCCinhA01 (Del La Fuente et al, 2008) was added to define the upper and lower limits of the assay.
Compound activity was quantified by measuring the increase in current upon compound addition and expressing this as a percentage increase of baseline TMEM16A current level.
In FIG. 1, IBL equals baseline current, I[#1] equals the peak current during test compound concentration 1 incubation period and so on.
Peak TMEM16A current at +70 mV was plotted as a function of time over the assay period. Baseline current (IBL) was measured after a period of stabilisation. The increase in current for each compound addition was determined by taking the peak current during the incubation period and subtracting the current from the previous recording period and then expressing this as a percentage of the baseline current (% potentiation). For test compound concentration 1 in FIG. 1 this is: (I[#1]−IBL/IBL)×100 For each additional concentration tested the increase in current was determined by subtracting the current from the previous incubation period and normalising the baseline value—for test concentration 2 in FIG. 1 this is: (I[#2]−I[#1])/IBL)×100 The values for each test concentration were plotted as a cumulative function of concentration eg. for test concentration two this would be the sum of the peak changes measured during concentration one plus concentration two.
(In general: In patch-clamp work, channel activity is measured electrically.)

SMILES strings stand for the structures.

From patent US12545658B2, “Pyridine derivatives as calcium-activated chloride channel modulators” (TMEM16A LIMITED, priority 2019, dated 2026) come the findings set out here.

As usually defined, the EC50 is the concentration at which the effect is half-maximal. As for `C#CC1(NC(=O)c2cc(NC(=O)Cc3cc(Cl)c4cn[nH]c4c3)ccn2)CCCC1` [Example 6.4, 4-[[2-(4-Chloro-1H-indazol-6-yl)acetyl]amino]-N-(1-ethynylcyclopentyl) pyridine-2-carboxamide], the “QPatch TMEM16A % Potentiation @ 370 nM” value was 55%, the “QPatch TMEM16A % Potentation @ 3.3 μM” value came to 78% and the EC50 is 20 nM.
Take `CC(C)(C)NC(=O)c1cc(NC(=O)Cc2cc(F)c3cn[nH]c3c2)ccn1` [Example 7, N-tert-Butyl-4-[[2-(4-fluoro-1H-indazol-6-yl)acetyl]amino]pyridine-2-carboxamide]: the “QPatch TMEM16A % Potentiation @ 370 nM” value stood at 88%, the “QPatch TMEM16A % Potentation @ 3.3 μM” value was 95% and the EC50 was 70 nM.
Take `CC(C)(C)NC(=O)c1cc(NC(=O)Cc2cc3[nH]ncc3cc2Cl)ccn1` [Example 7.1, N-tert-Butyl-4-[[2-(5-chloro-1H-indazol-6-yl)acetyl]amino]pyridine-2-carboxamide]: the “QPatch TMEM16A % Potentiation @ 370 nM” value was determined as 47%, the “QPatch TMEM16A % Potentation @ 3.3 μM” value came out at 82% and the EC50 was determined as 270 nM.
In the same order, the values of `CC(C)(C)NC(=O)c1cc(NC(=O)Cc2cc(Cl)c3cn[nH]c3c2)ccn1` [Example 7.2, N-tert-Butyl-4-[[2-(4-chloro-1H-indazol-6-yl)acetyl]amino]pyridine-2-carboxamide] are 102%, 142% and 140 nM.
Regarding `CC(C)(C)NC(=O)c1cc(NC(=O)Cc2ccc3c(C(F)(F)F)n[nH]c3c2)ccn1` [Example 8, N-tert-Butyl-4-[[2-[3-(trifluoromethyl)-1H-indazol-6-yl]acetyl]amino]pyridine-2-carboxamide], the “QPatch TMEM16A % Potentiation @ 370 nM” value turned out to be 65%, the “QPatch TMEM16A % Potentation @ 3.3 μM” value was found to be 98% and the EC50 turned out to be 210 nM.
For the compound `O=C(Cc1ccc2c(C(F)(F)F)n[nH]c2c1)Nc1ccnc(C(=O)NC2(C(F)(F)F)CC2)c1` [Example 8.1, N-[1-(Trifluoromethyl)cyclopropyl]-4-[[2-[3-(trifluoromethyl)-1H-indazol-6-yl]acetyl]amino]pyridine-2-carboxamide], the “QPatch TMEM16A % Potentiation @ 370 nM” value worked out at 97%, the “QPatch TMEM16A % Potentation @ 3.3 μM” value stood at 267% and the EC50 is 600 nM.
As for `CC(C)c1n[nH]c2cc(CC(=O)Nc3ccnc(C(=O)NC(C)(C)C)c3)ccc12` [Example 9, N-tert-Butyl-4-[[2-(3-isopropyl-1H-indazol-6-yl)acetyl]amino]pyridine-2-carboxamide], the “QPatch TMEM16A % Potentiation @ 370 nM” value worked out at 113%, the “QPatch TMEM16A % Potentation @ 3.3 μM” value is listed as 200% and the EC50 turned out to be 280 nM.
As to `O=C(Cc1ccc2cn[nH]c2c1)Nc1ccnc(C(=O)NC2(C(F)(F)F)COC2)c1` [Example 11.3, 4-[[2-(1H-Indazol-6-yl)acetyl]amino]-N-[3-(trifluoromethyl)oxetan-3-yl]pyridine-2-carboxamide], the “QPatch TMEM16A % Potentiation @ 370 nM” value was determined as 117%, the “QPatch TMEM16A % Potentation @ 3.3 μM” value stood at 180% and the EC50 stood at 220 nM.
Take `O=C(Cc1ccc2cn[nH]c2c1)Nc1ccnc(C(=O)NC2(C(F)F)CC2)c1` [Example 11.4, N-[1-(Difluoromethyl)cyclopropyl]-4-[[2-(1H-indazol-6-yl)acetyl]amino] pyridine-2-carboxamide]: the “QPatch TMEM16A % Potentiation @ 370 nM” value amounted to 85%, the “QPatch TMEM16A % Potentation @ 3.3 μM” value was found to be 132% and the EC50 amounted to 210 nM.
For `O=C(Cc1ccc2cn[nH]c2c1)Nc1ccnc(C(=O)NC23CC(F)(C2)C3)c1` [Example 11.5, N-(3-Fluoro-1-bicyclo[1.1.1]pentanyl)-4-[[2-(1H-indazol-6-yl)acetyl]amino]pyridine-2-carboxamide], the “QPatch TMEM16A % Potentiation @ 370 nM” value was 41%, the “QPatch TMEM16A % Potentation @ 3.3 μM” value came to 61% and the EC50 came to 140 nM.
Consider `CC(O)(c1n[nH]c2cc(CC(=O)Nc3ccnc(C(=O)NC4(C(F)(F)F)CC4)c3)ccc12)C(F)(F)F` (centres unmarked) [Example 12, 4-[[2-[3-(2,2,2-Trifluoro-1-hydroxy-1-methyl-ethyl)-1H-indazol-6-yl]acetyl]amino]-N-[1-(trifluoromethyl)cyclopropyl]pyridine-2-carboxamide], for which the “QPatch TMEM16A % Potentiation @ 370 nM” value is 204%, the “QPatch TMEM16A % Potentation @ 3.3 μM” value came to 338% and the EC50 amounted to 240 nM.
In the same order, the values of `CC(C)(NC(=O)c1cc(NC(=O)Cc2ccc3cc[nH]c3c2)ccn1)C(F)(F)F` [Example 13, 4-[[2-(1H-Indol-6-yl)acetyl]amino]-N-(2,2,2-trifluoro-1,1-dimethyl-ethyl) pyridine-2-carboxamide] are 47%, 93% and 410 nM.
As for `N#CC1(NC(=O)c2cc(NC(=O)Cc3ccc4cc[nH]c4c3)ccn2)CCOCC1` [Example 13.2, N-(4-Cyanotetrahydropyran-4-yl)-4-[[2-(1H-indol-6-yl)acetyl]amino] pyridine-2-carboxamide], the “QPatch TMEM16A % Potentiation @ 370 nM” value came out at 98%, the “QPatch TMEM16A % Potentation @ 3.3 μM” value turned out to be 134% and the EC50 is 130 nM. The “EC50 compared with Compound B” value (indole compounds versus comparator Compound B) is reported as “lower EC50 values than Compound B”. Under “versus comparator Compound B”, the “maximum potentiation of TMEM16A compared with Compound B” value is listed as “improved maximum potentiation of TMEM16A”.
